Data from PubChem BioAssay AID1963440 (Molecular Pharmacology Branch, DTP, NCI, 2024).

System: NCI-H1417 complex spheroids, growth % test/control
Experiment: Anticancer human tumor NCI-H1417 cell line growth inhibition [Asc];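 further: spheroids exposed to compounds for 7 days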;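 on viability, T/C: 100% = DMSO vehicle control wells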
Conditions: for IC50: curve of first compound; for viability, T/C: stronger effect = lower value
Summary of the method: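 Concentration series start at each agent's clinical Cmax, or at 10 microM when none is established, and drop in half-log steps; agents are applied alone or together to complex spheroids built with HUVEC and hMSC.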

[1] = second compound 0.01 µM, first compound 0.0316 µM
[2] = second compound 0.01 µM, first compound 0.1 µM
[3] = second compound 0.01 µM, first compound 0.316 µM
[4] = second compound 0.01 µM, first compound 1 µM
[5] = second compound 0.01 µM, first compound 3.16 µM
[6] = second compound 0.01 µM, first compound 10 µM
[7] = second compound 0.0316 µM, first compound 0.0316 µM
[8] = second compound 0.0316 µM, first compound 0.1 µM
[9] = second compound 0.0316 µM, first compound 0.316 µM
[10] = second compound 0.0316 µM, first compound 1 µM
[11] = second compound 0.0316 µM, first compound 3.16 µM
[12] = second compound 0.0316 µM, first compound 10 µM
[13] = second compound 0.1 µM, first compound 0.0316 µM
[14] = second compound 0.1 µM, first compound 0.1 µM
[15] = second compound 0.1 µM, first compound 0.316 µM
[16] = second compound 0.1 µM, first compound 1 µM
[17] = second compound 0.1 µM, first compound 3.16 µM
[18] = second compound 0.1 µM, first compound 10 µM
[19] = second compound 0.316 µM, first compound 0.0316 µM
[20] = second compound 0.316 µM, first compound 0.1 µM
[21] = second compound 0.316 µM, first compound 0.316 µM
[22] = second compound 0.316 µM, first compound 1 µM
[23] = second compound 0.316 µM, first compound 3.16 µM
[24] = second compound 0.316 µM, first compound 10 µM
[25] = second compound 1 µM, first compound 0.0316 µM
[26] = second compound 1 µM, first compound 0.1 µM
[27] = second compound 1 µM, first compound 0.316 µM
[28] = second compound 1 µM, first compound 1 µM
[29] = second compound 1 µM, first compound 3.16 µM
[30] = second compound 1 µM, first compound 10 µM

Compound: C#Cc1c(F)ccc2cc(O)cc(-c3ncc4c(N5CC6CCC(C5)N6)nc(OCC56CCCN5CC(F)C6)nc4c3F)c12 (configuration not stated) + CNC(C)C(=O)NC1CN(S(=O)(=O)c2cccc(S(=O)(=O)N3CCC4CCC(C(=O)NC(c5ccccc5)c5ccccc5)N4C(=O)C(NC(=O)C(C)NC)C3)c2)CCC2CCC(C(=O)NC(c3ccccc3)c3ccccc3)N2C1=O
- IC50 (second compound 0.00316 µM): > 10 µM
- IC50 (second compound 0.01 µM): > 10 µM
- IC50 (second compound 0.0316 µM): > 10 µM
- IC50 (second compound 0.1 µM): > 10 µM
- IC50 (second compound 0.316 µM): > 10 µM
- IC50 (second compound 1 µM): > 10 µM
- viability, T/C (second compound 0.00316 µM, first compound 0.0316 µM): 96.1%
- viability, T/C (second compound 0.00316 µM, first compound 0.1 µM): 87.6%
- viability, T/C (second compound 0.00316 µM, first compound 0.316 µM): 99.3%
- viability, T/C (second compound 0.00316 µM, first compound 1 µM): 95.7%
- viability, T/C (second compound 0.00316 µM, first compound 3.16 µM): 81.7%
- viability, T/C (second compound 0.00316 µM, first compound 10 µM): 65%
- viability, T/C [1]: 98%
- viability, T/C [2]: 90%
- viability, T/C [3]: 82.2%
- viability, T/C [4]: 98.1%
- viability, T/C [5]: 93.2%
- viability, T/C [6]: 66.4%
- viability, T/C [7]: 101%
- viability, T/C [8]: 90.6%
- viability, T/C [9]: 91.1%
- viability, T/C [10]: 98.2%
- viability, T/C [11]: 88.9%
- viability, T/C [12]: 69.3%
- viability, T/C [13]: 89.5%
- viability, T/C [14]: 91.5%
- viability, T/C [15]: 86%
- viability, T/C [16]: 97.6%
- viability, T/C [17]: 91.2%
- viability, T/C [18]: 69.8%
- viability, T/C [19]: 82.3%
- viability, T/C [20]: 80.9%
- viability, T/C [21]: 87.1%
- viability, T/C [22]: 86.7%
- viability, T/C [23]: 91.2%
- viability, T/C [24]: 64.6%
- viability, T/C [25]: 97.5%
- viability, T/C [26]: 80.9%
- viability, T/C [27]: 89.6%
- viability, T/C [28]: 84.3%
- viability, T/C [29]: 86.7%
- viability, T/C [30]: 66.8%

Compound: C=C(F)C(=O)N1CCN(c2nc(OCC3CCCN3C)nc3c2CCN(c2cccc4cccc(Cl)c24)C3)CC1CC#N (configuration not stated) + CNC(C)C(=O)NC1CN(S(=O)(=O)c2cccc(S(=O)(=O)N3CCC4CCC(C(=O)NC(c5ccccc5)c5ccccc5)N4C(=O)C(NC(=O)C(C)NC)C3)c2)CCC2CCC(C(=O)NC(c3ccccc3)c3ccccc3)N2C1=O
- IC50 (second compound 0.01 µM): 4.6 µM
- IC50 (second compound 0.0316 µM): 3.76 µM
- IC50 (second compound 0.1 µM): 3.98 µM
- IC50 (second compound 0.316 µM): 3.07 µM
- IC50 (second compound 1 µM): 3.23 µM
- viability, T/C [1]: 111%
- viability, T/C [2]: 101%
- viability, T/C [3]: 106%
- viability, T/C [4]: 92.2%
- viability, T/C [5]: 76.2%
- viability, T/C [6]: 0.22%
- viability, T/C [7]: 98.6%
- viability, T/C [8]: 102%
- viability, T/C [9]: 93.2%
- viability, T/C [10]: 105%
- viability, T/C [11]: 58.8%
- viability, T/C [12]: 0.2%
- viability, T/C [13]: 90.6%
- viability, T/C [14]: 99.5%
- viability, T/C [15]: 89.8%
- viability, T/C [16]: 90%
- viability, T/C [17]: 62.3%
- viability, T/C [18]: 0.2%
- viability, T/C [19]: 94.5%
- viability, T/C [20]: 90.8%
- viability, T/C [21]: 94.8%
- viability, T/C [22]: 97.1%
- viability, T/C [23]: 48.9%
- viability, T/C [24]: 0.21%
- viability, T/C [25]: 95.2%
- viability, T/C [26]: 101%
- viability, T/C [27]: 106%
- viability, T/C [28]: 101%
- viability, T/C [29]: 50.9%
- viability, T/C [30]: 1.03%
